Measurements published in US6060038A, “Radiolabeled farnesyl-protein transferase inhibitors” (Merck & Co., Inc., priority 1998, dated 2000).
Where a name gives a salt, the structure may show the parent alone.

Key:
FPTase = test: PET Imaging in Dogs: block of [^11 C]-Compound 1 radiotracer binding by infused FTI; assay type: in vivo, beagle dogs; conditions: 10 mpk infused over 5 minutes, radiotracer [^11 C]-Compound 1
Description: Kinetics of enzyme occupancy by an unlabeled FPTase inhibitor (test compound) is determined by this assay. Thus, FVB mice are injected the test compound at either 40 mpk or 10 mpk subcutaneously (0.1 mls). Thirty minutes prior to euthanasia, 3 nCi of tritiated farnesyl protein transferase inhibitor (radiotracer) was injected i.p. (0.2 mls 10% EtOH in 0.9% saline). Uninhibited binding of the radiotracer is determined by injection of the radiotracer in mice which have not received injection of the test compound. The mice are euthanized either 2 hours of 14 hours after injection of the test compound and lung, spleen, pancrease and blood are removed and processed as described above. Data are plotted as %-dose/g of tissue (wet weight). […]
Oxygen saturation of circulating blood is measured with a pulse oximeter (Nellcor Inc., Hayward, Calif.) placed on the tongue of the animal. […] EKG, heart rate, and core temperature are monitored continuously. […]
For uninhibited distribution of radiotracer, regions of interest (ROIs) are drawn on the reconstructed image includes the kidney cortex and a region of liver which is removed from the gallbladder images. […] Data are expressed as radioactivity per unit time per unit volume (μCi/cc/mCi injected dose). […]

[1] = Radiochemical decomposition of stored radiotracer samples; assay type: physicochemical; conditions: stored for up to 90 minutes in sterile glass vial; saline/sodium bicarbonate
Description: The container used for the drug is described above. It consists of a sterile, pyrogen free glass vial with a crimp-sealed aluminum cap surrounding a rubber stopper. Samples of the radiotracer have been stored for up to 90 minutes and analyzed for radiochemical decomposition.

radiochemical decomposition on storage [1] | SMILES | block of radiotracer binding (FPTase)
 | CCCC[C@H]1CN(c2cccc(C)c2C)C(=O)CN1Cc1cncn1Cc1ccc(C#N)cc1.O=C(O)C(F)(F)F.O=C(O)C(F)(F)F [Compound 3, 5(S)-n-Butyl-4-[1-(4-cyanobenzyl)imidazol-5-ylmethyl]-1-(2,3-dimethylphenyl)piperazin-2-one ditrifluoroacetic acid salt] | completely block radiotracer binding
No decomposition has been observed | [11CH3]S(=O)(=O)CC[C@H]1CN(c2cc(I)cc(CF)c2)C(=O)CN1Cc1cncn1Cc1ccc(C#N)cc1 [[^11 C]-Compound 1, (S)-1-(3-iodo-5-fluoromethylphenyl)-4-[1-(4-cyanobenzyl)-5-imidazolylmethyl]-5-[2-(^11 C-methanesulfonyl)ethyl]-2-piperazinone dihydrochloride] | 
